The text below walks through data of ChEMBL document CHEMBL4765276, “Synthesis of multimeric pyrrolidine iminosugar inhibitors of human β-glucocerebrosidase and α-galactosidase A: First example of a multivalent enzyme activity enhancer for Fabry disease” (Eur J Med Chem, 2020).

Assay [1] has as its target T1, Lysosomal acid glucosylceramidase (Homo sapiens) (UniProt P04062).
T1 sequence (whole entry): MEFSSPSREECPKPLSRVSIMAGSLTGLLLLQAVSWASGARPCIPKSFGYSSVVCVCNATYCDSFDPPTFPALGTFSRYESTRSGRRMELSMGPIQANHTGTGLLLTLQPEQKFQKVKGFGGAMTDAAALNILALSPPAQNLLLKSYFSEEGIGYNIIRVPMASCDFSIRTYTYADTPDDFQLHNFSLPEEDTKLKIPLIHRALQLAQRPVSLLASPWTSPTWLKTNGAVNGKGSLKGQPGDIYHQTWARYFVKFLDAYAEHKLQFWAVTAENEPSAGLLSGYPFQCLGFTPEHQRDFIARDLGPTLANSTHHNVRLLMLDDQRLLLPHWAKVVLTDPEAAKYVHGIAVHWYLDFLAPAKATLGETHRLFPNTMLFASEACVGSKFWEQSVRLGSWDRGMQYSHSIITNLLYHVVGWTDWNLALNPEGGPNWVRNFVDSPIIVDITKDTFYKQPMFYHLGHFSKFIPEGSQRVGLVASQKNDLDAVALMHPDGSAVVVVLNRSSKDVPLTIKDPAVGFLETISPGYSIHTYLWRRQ
The experiment in a line: Inhibition of human recombinant lysosomal GCase at 1 mM using 4-methylumbelliferyl-beta-D-glucopyranoside as substrate preincubated for 45 mins followed by substrate addition and measured after 30 mins by fluorescence spectrophotometric assay relative to control. The note with it: time 75.0 min.

In assay [2] the target is T2, Alpha-galactosidase A (Homo sapiens) (UniProt P06280).
T2 sequence (whole entry): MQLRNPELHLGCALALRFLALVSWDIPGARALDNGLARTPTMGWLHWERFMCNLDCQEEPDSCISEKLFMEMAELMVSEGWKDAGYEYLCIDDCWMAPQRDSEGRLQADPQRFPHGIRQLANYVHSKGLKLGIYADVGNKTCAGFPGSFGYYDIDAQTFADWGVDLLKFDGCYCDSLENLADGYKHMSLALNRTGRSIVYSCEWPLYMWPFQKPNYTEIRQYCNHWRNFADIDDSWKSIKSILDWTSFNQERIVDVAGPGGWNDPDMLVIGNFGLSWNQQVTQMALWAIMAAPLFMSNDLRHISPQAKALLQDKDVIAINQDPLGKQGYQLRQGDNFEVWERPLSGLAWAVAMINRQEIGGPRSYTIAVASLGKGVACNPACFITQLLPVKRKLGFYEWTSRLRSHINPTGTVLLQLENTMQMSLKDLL
Kind of assay: Inhibition of human recombinant lysosomal alpha-GalA at 1 mM using 4-methylumbelliferyl-[…] as substrate preincubated for 45 mins followed by substrate addition and measured after 30 mins by fluorescence spectrophotometric assay relative to control. The note with it: time 75.0 min.

Assay [3] concerns the target T3, Lysosomal acid glucosylceramidase (Homo sapiens, UniProt P04062).
T3 sequence (P04062 whole entry): T1 sequence (whole entry)
The experiment in a line: Competitive inhibition of human recombinant lysosomal GCase using 4-methylumbelliferyl-beta-D-glucopyranoside as substrate preincubated for 45 mins followed by substrate addition and measured after 30 mins by fluorescence spectrophotometry based Lineweaver-Burk plot analysis.

Assay [4] addresses T3, Lysosomal acid glucosylceramidase. The experiment in a line: Inhibition of human recombinant lysosomal GCase using 4-methylumbelliferyl-beta-D-glucopyranoside as substrate preincubated for 45 mins followed by substrate addition and measured after 30 mins by fluorescence spectrophotometric assay.
Another assay has as its target T4, Alpha-galactosidase A (Homo sapiens, UniProt P06280).
T4 sequence (P06280 whole entry): T2 sequence (whole entry)
Kind of assay: Inhibition of human recombinant lysosomal alpha-GalA using 4-methylumbelliferyl-[…] as substrate preincubated for 45 mins followed by substrate addition and measured after 30 mins by fluorescence spectrophotometric assay.

As usually defined, the inhibition is the change of the read-out against control, counted positive when it falls. A word on the Ki: it is the dissociation constant of the complex between target and ligand, obtained from inhibition or displacement. A word on the IC50: it is the point on the concentration scale where inhibition reaches its midpoint.

Turning to `COCc1cn(C[C@@H]2NC[C@@H](O)[C@H]2O)nn1`, the inhibition in assay [1] and in assay [2] was under 50% each time.

For the molecule `COc1ccc(-c2cn(C[C@@H]3NC[C@@H](O)[C@H]3O)nn2)cc1`, in assay [3], the Ki was determined as 55 µM. Moreover, the IC50 in assay [4] came to 39 µM. The inhibition in assay [2] is under 50%.

Take `NC(COCc1cn(CCOCCOc2ccc(-c3cn(C[C@@H]4NC[C@@H](O)[C@H]4O)nn3)cc2)nn1)(COCc1cn(CCOCCOc2ccc(-c3cn(C[C@@H]4NC[C@@H](O)[C@H]4O)nn3)cc2)nn1)COCc1cn(CCOCCOc2ccc(-c3cn(C[C@@H]4NC[C@@H](O)[C@H]4O)nn3)cc2)nn1`: the Ki in assay [3] was determined as 55 µM. Also, the IC50 in assay [4] was found to be 38 µM. In addition, the inhibition in assay [2] was under 50%.

As for `COCc1cn(C[C@H]2NC[C@@H](O)[C@H]2O)nn1`, the inhibition in assay [1] and in assay [2] was under 50% each time.

For `NC(COCc1cn(CCCc2cn(C[C@H]3NC[C@@H](O)[C@H]3O)nn2)nn1)(COCc1cn(CCCc2cn(C[C@H]3NC[C@@H](O)[C@H]3O)nn2)nn1)COCc1cn(CCCc2cn(C[C@H]3NC[C@@H](O)[C@H]3O)nn2)nn1`, in assay [1], the inhibition is under 50%. Besides, the IC50 at Alpha-galactosidase A was 309 µM.

Consider `O[C@@H]1[C@H](O)CN[C@H]1Cn1cc(CCCn2cc(COCC(COCc3cn(CCCc4cn(C[C@@H]5NC[C@@H](O)[C@H]5O)nn4)nn3)(COCc3cn(CCCc4cn(C[C@@H]5NC[C@@H](O)[C@H]5O)nn4)nn3)COCc3cn(CCCc4cn(C[C@@H]5NC[C@@H](O)[C@H]5O)nn4)nn3)nn2)nn1`, for which the 50% inhibitory concentration (IC50) in assay [4] was found to be 168 µM; at Alpha-galactosidase A, 897 µM.

For `NC(COCc1cn(C[C@@H]2NC[C@@H](O)[C@H]2O)nn1)(COCc1cn(C[C@@H]2NC[C@@H](O)[C@H]2O)nn1)COCc1cn(C[C@@H]2NC[C@@H](O)[C@H]2O)nn1`, the inhibition in assay [1] and in assay [2] was under 50% in each case.

`O=C(NC(COCc1cn(CCCc2cn(C[C@@H]3NC[C@@H](O)[C@H]3O)nn2)nn1)(COCc1cn(CCCc2cn(C[C@@H]3NC[C@@H](O)[C@H]3O)nn2)nn1)COCc1cn(CCCc2cn(C[C@@H]3NC[C@@H](O)[C@H]3O)nn2)nn1)c1cc(C(=O)NC(COCc2cn(CCCc3cn(C[C@@H]4NC[C@@H](O)[C@H]4O)nn3)nn2)(COCc2cn(CCCc3cn(C[C@@H]4NC[C@@H](O)[C@H]4O)nn3)nn2)COCc2cn(CCCc3cn(C[C@@H]4NC[C@@H](O)[C@H]4O)nn3)nn2)cc(C(=O)NC(COCc2cn(CCCc3cn(C[C@@H]4NC[C@@H](O)[C@H]4O)nn3)nn2)(COCc2cn(CCCc3cn(C[C@@H]4NC[C@@H](O)[C@H]4O)nn3)nn2)COCc2cn(CCCc3cn(C[C@@H]4NC[C@@H](O)[C@H]4O)nn3)nn2)c1`: the inhibition in assay [1] and in assay [2] was under 50% in each case.

For the molecule `O=C(CCCCC(=O)NC(COCc1cn(C[C@@H]2NC[C@@H](O)[C@H]2O)nn1)(COCc1cn(C[C@@H]2NC[C@@H](O)[C@H]2O)nn1)COCc1cn(C[C@@H]2NC[C@@H](O)[C@H]2O)nn1)NC(COCc1cn(C[C@@H]2NC[C@@H](O)[C@H]2O)nn1)(COCc1cn(C[C@@H]2NC[C@@H](O)[C@H]2O)nn1)COCc1cn(C[C@@H]2NC[C@@H](O)[C@H]2O)nn1`, the inhibition in assay [1] and in assay [2] was under 50% throughout.

As for `NC(COCc1cn(C[C@H]2NC[C@@H](O)[C@H]2O)nn1)(COCc1cn(C[C@H]2NC[C@@H](O)[C@H]2O)nn1)COCc1cn(C[C@H]2NC[C@@H](O)[C@H]2O)nn1`, the inhibition in assay [1] and in assay [2] was under 50% in each case.

In the case of `O[C@@H]1[C@H](O)CN[C@@H]1Cn1cc(CCCn2cc(COCC(COCc3cn(CCCc4cn(C[C@H]5NC[C@@H](O)[C@H]5O)nn4)nn3)(COCc3cn(CCCc4cn(C[C@H]5NC[C@@H](O)[C@H]5O)nn4)nn3)COCc3cn(CCCc4cn(C[C@H]5NC[C@@H](O)[C@H]5O)nn4)nn3)nn2)nn1`, the inhibition in assay [1] is under 50%. Moreover, the IC50 on Alpha-galactosidase A stood at 142 µM.

On to `O=C(CCCCC(=O)NC(COCc1cn(C[C@H]2NC[C@@H](O)[C@H]2O)nn1)(COCc1cn(C[C@H]2NC[C@@H](O)[C@H]2O)nn1)COCc1cn(C[C@H]2NC[C@@H](O)[C@H]2O)nn1)NC(COCc1cn(C[C@H]2NC[C@@H](O)[C@H]2O)nn1)(COCc1cn(C[C@H]2NC[C@@H](O)[C@H]2O)nn1)COCc1cn(C[C@H]2NC[C@@H](O)[C@H]2O)nn1`, for which, in assay [1], the inhibition was under 50%. Also, at Alpha-galactosidase A, the IC50 amounted to 416 µM.

For the molecule `CCCc1cn(C[C@@H]2NC[C@@H](O)[C@H]2O)nn1`, the IC50 in assay [4] was 247 µM. Also, in assay [2], the inhibition is under 50%.

Consider `O=C(NC(COCc1cn(C[C@H]2NC[C@@H](O)[C@H]2O)nn1)(COCc1cn(C[C@H]2NC[C@@H](O)[C@H]2O)nn1)COCc1cn(C[C@H]2NC[C@@H](O)[C@H]2O)nn1)c1cc(C(=O)NC(COCc2cn(C[C@H]3NC[C@@H](O)[C@H]3O)nn2)(COCc2cn(C[C@H]3NC[C@@H](O)[C@H]3O)nn2)COCc2cn(C[C@H]3NC[C@@H](O)[C@H]3O)nn2)cc(C(=O)NC(COCc2cn(C[C@H]3NC[C@@H](O)[C@H]3O)nn2)(COCc2cn(C[C@H]3NC[C@@H](O)[C@H]3O)nn2)COCc2cn(C[C@H]3NC[C@@H](O)[C@H]3O)nn2)c1`, for which the inhibition in assay [1] is under 50%. Further, at Alpha-galactosidase A, the IC50 is 286 µM.

As to `NC(COCc1cn(CCCc2cn(C[C@@H]3NC[C@@H](O)[C@H]3O)nn2)nn1)(COCc1cn(CCCc2cn(C[C@@H]3NC[C@@H](O)[C@H]3O)nn2)nn1)COCc1cn(CCCc2cn(C[C@@H]3NC[C@@H](O)[C@H]3O)nn2)nn1`, the IC50 in assay [4] was 725 µM. In addition, the inhibition in assay [2] is under 50%.

Turning to `O=C(CCCCC(=O)NC(COCc1cn(CCCc2cn(C[C@@H]3NC[C@@H](O)[C@H]3O)nn2)nn1)(COCc1cn(CCCc2cn(C[C@@H]3NC[C@@H](O)[C@H]3O)nn2)nn1)COCc1cn(CCCc2cn(C[C@@H]3NC[C@@H](O)[C@H]3O)nn2)nn1)NC(COCc1cn(CCCc2cn(C[C@@H]3NC[C@@H](O)[C@H]3O)nn2)nn1)(COCc1cn(CCCc2cn(C[C@@H]3NC[C@@H](O)[C@H]3O)nn2)nn1)COCc1cn(CCCc2cn(C[C@@H]3NC[C@@H](O)[C@H]3O)nn2)nn1`, the IC50 in assay [4] worked out at 333 µM; on Alpha-galactosidase A, 483 µM.

`CCCc1cn(C[C@H]2NC[C@@H](O)[C@H]2O)nn1`: the inhibition in assay [1] and in assay [2] was under 50% each time.

As for `O=C(NC(COCc1cn(CCOCCOc2ccc(-c3cn(C[C@@H]4NC[C@@H](O)[C@H]4O)nn3)cc2)nn1)(COCc1cn(CCOCCOc2ccc(-c3cn(C[C@@H]4NC[C@@H](O)[C@H]4O)nn3)cc2)nn1)COCc1cn(CCOCCOc2ccc(-c3cn(C[C@@H]4NC[C@@H](O)[C@H]4O)nn3)cc2)nn1)c1cc(C(=O)NC(COCc2cn(CCOCCOc3ccc(-c4cn(C[C@@H]5NC[C@@H](O)[C@H]5O)nn4)cc3)nn2)(COCc2cn(CCOCCOc3ccc(-c4cn(C[C@@H]5NC[C@@H](O)[C@H]5O)nn4)cc3)nn2)COCc2cn(CCOCCOc3ccc(-c4cn(C[C@@H]5NC[C@@H](O)[C@H]5O)nn4)cc3)nn2)cc(C(=O)NC(COCc2cn(CCOCCOc3ccc(-c4cn(C[C@@H]5NC[C@@H](O)[C@H]5O)nn4)cc3)nn2)(COCc2cn(CCOCCOc3ccc(-c4cn(C[C@@H]5NC[C@@H](O)[C@H]5O)nn4)cc3)nn2)COCc2cn(CCOCCOc3ccc(-c4cn(C[C@@H]5NC[C@@H](O)[C@H]5O)nn4)cc3)nn2)c1`, in assay [3], the Ki was 1.1 µM. Further, in assay [4], the IC50 came out at 1.1 µM. Further, the inhibition in assay [2] was under 50%.

As for `O=C(NC(COCc1cn(C[C@@H]2NC[C@@H](O)[C@H]2O)nn1)(COCc1cn(C[C@@H]2NC[C@@H](O)[C@H]2O)nn1)COCc1cn(C[C@@H]2NC[C@@H](O)[C@H]2O)nn1)c1cc(C(=O)NC(COCc2cn(C[C@@H]3NC[C@@H](O)[C@H]3O)nn2)(COCc2cn(C[C@@H]3NC[C@@H](O)[C@H]3O)nn2)COCc2cn(C[C@@H]3NC[C@@H](O)[C@H]3O)nn2)cc(C(=O)NC(COCc2cn(C[C@@H]3NC[C@@H](O)[C@H]3O)nn2)(COCc2cn(C[C@@H]3NC[C@@H](O)[C@H]3O)nn2)COCc2cn(C[C@@H]3NC[C@@H](O)[C@H]3O)nn2)c1`, the inhibition in assay [1] and in assay [2] was under 50% in each case.
